Measurements as given in ChEMBL document CHEMBL2150860, “Herbarone, a rearranged heptaketide derivative from the sea hare associated fungus Torula herbarum” (J Nat Prod, 2012).

Columns and labels:
Format in all cases: functional, cell-based
[1] = test system: MG-63; assay: Cytotoxicity against human MG63 cells by MTT colorimetric method
[2] = test system: LoVo; assay: Cytotoxicity against human LoVo cells by MTT colorimetric method
[3] = test system: A549; assay: Cytotoxicity against human A549 cells by MTT colorimetric method

| Structure (SMILES) | IC50 [1] [µM] | IC50 [2] [µM] | IC50 [3] [µM] |
| --- | --- | --- | --- |
| COc1cccc2c1C(=O)c1c(O)c3c(c(O)c1C2=O)C[C@@](O)(C(=O)CO)C[C@@H]3O[C@H]1C[C@H](N)[C@H](O)[C@H](C)O1 [DOXORUBICIN] | 2.7 | 2.7 |  |
| COc1cc(OC)c2c(c1)C(=O)[C@@H]1C[C@@H](O)C[C@@]2(O)[C@@H]1CO | > 97.4 | > 97.4 | > 97.4 |
